Values quoted from earlier work in patent US20040235808A1, “Androstanes as androgen receptor modulators” (priority 2001, published 2004).

Assays:
[1] = after 7 years of treatment
[2] = median of 22 months of treatment

NCCCC(O)(P(=O)([O-])O)P(=O)(O)O.O.O.O.[Na+] [alendronate, (4-amino-1-hydroxybutylidene)-bis-phosphonate monosodium trihydrate]
increase in spinal BMD [1]: 11%

hPTH(1-34): human parathyroid hormone 1-34 fragment (SVSEIQLMHNLGKHLNSMERVEWLRKKLQDVHNF; Parathyroid hormone; UniProt P01270 32-65, looked up, fragment)
reduction in nonvertebral fractures [2]: 54%
reduction in spine fractures [2]: ≥ 65%
